The values that follow come from patent US20080249042A1, “All-Trans-Retinol: All-Trans-13,14-Dihydroretinol Saturase and Methods of Its Use” (UNIVERSITY OF WASHINGTON, priority 2004, published 2008).

The target in data set [1] is T1, mouse RXR-α (Mus musculus, UniProt P28700).
T1 construct: The RXR-α open reading frame was then subcloned into the pcDNA3.1 Directional TOPO vector; expressed in transfected cells; host or cells: N-acetylglucosaminyltransferase I-negative HEK-293S
T1 sequence (P28700 1-467): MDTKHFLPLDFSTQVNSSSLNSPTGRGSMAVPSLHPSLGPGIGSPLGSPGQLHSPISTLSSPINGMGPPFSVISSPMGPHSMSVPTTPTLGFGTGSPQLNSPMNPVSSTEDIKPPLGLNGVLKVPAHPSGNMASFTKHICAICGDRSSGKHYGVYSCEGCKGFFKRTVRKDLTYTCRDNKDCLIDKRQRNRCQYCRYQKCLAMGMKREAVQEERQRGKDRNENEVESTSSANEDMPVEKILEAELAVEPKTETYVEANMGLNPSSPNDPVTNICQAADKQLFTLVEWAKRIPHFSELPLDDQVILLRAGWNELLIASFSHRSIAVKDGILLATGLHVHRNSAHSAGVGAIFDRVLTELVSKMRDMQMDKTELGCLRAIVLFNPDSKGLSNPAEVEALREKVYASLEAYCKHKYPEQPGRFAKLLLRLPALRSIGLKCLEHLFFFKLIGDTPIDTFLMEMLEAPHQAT
Briefly: RXRE (DR1) activation assay, HEK-293S cells with pRXRE-BLUE and RXR-α. Conditions: cotransfected with mouse RXR-α, 48 h. The class given is cell-based.

The nature of data set [2]: Liver retinoids of Lrat-/- mice 3 h after gavage with all-trans-DROL. The class given is in vivo, mouse. Conditions: 3 h post-gavage. The text has this: (§1) Metabolism of Retinoids in Vivo. All animal experiments employed procedures approved by the University of Washington and conformed to recommendations of the American Veterinary Medical Association Panel on Euthanasia and recommendations of the Association of Research for Vision and Ophthalmology. Animals were maintained on a 12-h light and 12-h dark cycle. All manipulations were done under dim red or infrared light (>560 nm). Most experiments used 6-12-week-old mice. Lrat−/− mice were genotyped as described previously. Batten, et al. J. Biol. Chem. 279:10422-10432, 2004. Animals were maintained on a control chow diet up to 1 h prior to oral gavage. The appropriate amount of all-trans-ROL palmitate, all-trans-DROL, or all-trans-RA was dissolved in vegetable oil and administered by oral gavage 3 h prior to analysis.
(§2) Analysis of Retinoids. Liver (1 g) from retinoid gavaged or naive mice was homogenized in 2 ml of 137 mM NaCl, 2.7 mM KCl, and 10 mM sodium phosphate (pH 7.4) for 30 s using a Polytron homogenizer. 10 μl of 5 M NaOH was added to 3 ml of the ethanolic extract, and the nonpolar retinoids were extracted using 5 ml of hexane. The extraction was repeated, and the organic phases were combined, dried under vacuum, resuspended in hexane, and examined by normal phase HPLC using a normal phase column (Beckman Ultrasphere Si 5μ, 4.6×250 mm). […] The HPLC elution conditions were […], 100% buffer A for 40 min, 100% buffer B for 10 min, and 10 min equilibration in buffer A. The elution profiles of RA and DRA were monitored using an online diode array detector set at 350 and 290 nm, respectively. […] The measured area of absorbance was converted to picomoles based on a calibration of the HPLC columns using a known amount of all-trans-RA or all-trans-ROL (Sigma) and all-trans-DROL or all-trans-DRA (synthetic standards). The extraction efficiency was monitored by spiking a tissue sample with [^3H]RA (PerkinElmer Life Sciences) and monitoring the radioactivity recovered from the HPLC column. […]

Data set [3] can be described thus: Liver retinoids of Lrat-/- mice 3 h after gavage with all-trans-RA. Conditions: 3 h post-gavage. The data set is classed as in vivo, mouse.
Source text: as §1, §2

Data set [4] has as its target T2, mouse RetSat (Mus musculus, UniProt Q64FW2).
T2 construct: expressed in transfected cells
T2 sequence (Q64FW2 26-609): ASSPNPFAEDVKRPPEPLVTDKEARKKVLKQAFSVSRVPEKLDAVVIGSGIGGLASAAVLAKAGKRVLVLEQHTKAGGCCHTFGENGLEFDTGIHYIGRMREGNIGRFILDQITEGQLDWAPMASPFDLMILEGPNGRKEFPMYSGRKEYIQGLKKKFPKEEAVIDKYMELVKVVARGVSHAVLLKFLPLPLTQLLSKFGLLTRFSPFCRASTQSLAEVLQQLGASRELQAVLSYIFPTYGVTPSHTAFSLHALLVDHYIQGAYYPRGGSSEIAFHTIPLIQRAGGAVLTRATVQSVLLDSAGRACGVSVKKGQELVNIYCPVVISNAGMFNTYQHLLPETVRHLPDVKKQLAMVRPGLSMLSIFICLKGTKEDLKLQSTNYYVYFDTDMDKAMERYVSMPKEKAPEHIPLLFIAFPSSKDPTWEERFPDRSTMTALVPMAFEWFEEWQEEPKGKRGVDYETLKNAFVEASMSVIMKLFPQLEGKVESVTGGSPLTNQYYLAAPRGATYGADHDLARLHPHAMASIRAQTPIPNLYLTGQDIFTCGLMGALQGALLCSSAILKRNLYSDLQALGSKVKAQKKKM
Put plainly: Saturase activity in homogenized HEKK-RetSat cells. The class given is biochemical. Conditions: membrane homogenate, 40 μM substrate, 1 hr. As to the method: Enzymatic assays for saturase activity in homogenized cells. Cells were homogenized with 15 mM Tris-HCl, pH 8.0, containing 10 mM dithiothreitol and 0.32 M sucrose. One aliquot of cells was boiled for 10 min at 95° C. as a negative control. Cell aliquots of 200 μl were supplemented with 1 mM ATP and 40 μM all-trans-retinol final concentrations. Some aliquots were also supplemented with 0.4 mM NADH or 0.4 mM NADPH to regenerate the redox state of the reaction. The cell homogenate was incubated with retinol substrate with shaking at 37° C. for 1 hr in the dark. This was followed by the extraction of retinoids with one volume of methanol and two volumes of hexane. The organic phase was dried and resuspended in hexane and then examined by normal-phase HPLC.

Each structure is given as a SMILES string.

As for `CC1=C(/C=C/C(C)=C/C=C/C(C)CC(=O)O)C(C)(C)CCC1` (stereo not drawn) [all-trans-DRA, all-trans-13,14-dihydroretinoic acid], the “Activation of RXR-mediated transcription (DR1 elements)” value in data set [1] is recorded as “very weak RXR activator”. For the same molecule, in data set [2], the “Level in liver after gavage with all-trans-DROL” value is listed as “significant levels”. In addition, in data set [3], the “Formation in liver after gavage with all-trans-RA” value was “no evidence”.
With `CC1=C(/C=C/C(C)=C/C=C/C(C)=C/CO)C(C)(C)CCC1` [all-trans-ROL, all-trans-retinol], in data set [4], the “all-trans-13,14-dihydroretinol produced” value is reported as “little”.
